Consider five compounds from patent US5486526A, “Histamine H3 -receptor antagonists and therapeutic uses thereof” (The University of Toledo, priority 1993, dated 1996).

Series [1] has as its system Adenosine. Description: NOVASCREEN receptor selectivity assay: Adenosine. The format is binding. Conditions: 10^-5 M.
Series [2] concerns Quisqualate. Briefly: NOVASCREEN receptor selectivity assay: Quisqualate. Conditions: 10^-5 M. It is filed as binding.
Series [3] deals with Kainate. Briefly: NOVASCREEN receptor selectivity assay: Kainate. It is filed as binding. Conditions: 10^-5 M.
The test system of series [4] is MK-801. Description: NOVASCREEN receptor selectivity assay: MK-801. The following applies: 10^-5 M. The format is binding.
The subject of series [5] is NMDA. Description: NOVASCREEN receptor selectivity assay: NMDA. The format is binding. The following applies: 10^-5 M.
Series [6] concerns PCP. Description: NOVASCREEN receptor selectivity assay: PCP. The format is binding. The following applies: 10^-5 M.
Series [7] relates to Glycine. Description: NOVASCREEN receptor selectivity assay: Glycine (excitatory). It is filed as binding. Conditions: 10^-5 M.
Series [8] deals with Glycine. Description: NOVASCREEN receptor selectivity assay: Glycine (inhibitory). The following applies: 10^-5 M. The format is binding.
Series [9] concerns GABAA. Description: NOVASCREEN receptor selectivity assay: GABAA. It is filed as binding. Conditions: 10^-5 M.
In series [10] the test system is GABAB. Description: NOVASCREEN receptor selectivity assay: GABAB. It is filed as binding. The following applies: 10^-5 M.
The subject of series [11] is Benzodiazephine. Briefly: NOVASCREEN receptor selectivity assay: Benzodiazephine. The format is binding. Conditions: 10^-5 M.
In series [12] the test system is Dopamine 1. Description: NOVASCREEN receptor selectivity assay: Dopamine 1. It is filed as binding. The following applies: 10^-5 M.
In series [13] the test system is Dopamine 2. Description: NOVASCREEN receptor selectivity assay: Dopamine 2. The format is binding. The following applies: 10^-5 M.
Series [14] relates to Serotonin 1. Briefly: NOVASCREEN receptor selectivity assay: Serotonin 1. The format is binding. The following applies: 10^-5 M.
Series [15] has as its system Serotonin 2. Briefly: NOVASCREEN receptor selectivity assay: Serotonin 2. It is filed as binding. Conditions: 10^-5 M.
The test system of series [16] is Angiotensin. Briefly: NOVASCREEN receptor selectivity assay: Angiotensin. The format is binding. The following applies: 10^-5 M.
The subject of series [17] is Arg-Vasopressin V1. Briefly: NOVASCREEN receptor selectivity assay: Arg-Vasopressin V1. The following applies: 10^-5 M. It is filed as binding.
Series [18] deals with Bombesin. Briefly: NOVASCREEN receptor selectivity assay: Bombesin. It is filed as binding. The following applies: 10^-5 M.
Series [19] has as its system CCK Central. Briefly: NOVASCREEN receptor selectivity assay: CCK Central. It is filed as binding. Conditions: 10^-5 M.
In series [20] the test system is CCK Peripheral. Description: NOVASCREEN receptor selectivity assay: CCK Peripheral. It is filed as binding. Conditions: 10^-5 M.
Series [21] relates to Substance K. Description: NOVASCREEN receptor selectivity assay: Substance K. It is filed as binding. Conditions: 10^-5 M.
Series [22] has as its system Substance P. Briefly: NOVASCREEN receptor selectivity assay: Substance P. It is filed as binding. The following applies: 10^-5 M.
The test system of series [23] is NPY. Description: NOVASCREEN receptor selectivity assay: NPY. The format is binding. Conditions: 10^-5 M.
Series [24] concerns Neurotensin. Description: NOVASCREEN receptor selectivity assay: Neurotensin. The format is binding. The following applies: 10^-5 M.
Series [25] relates to Somatostatin. Briefly: NOVASCREEN receptor selectivity assay: Somatostatin. The format is binding. Conditions: 10^-5 M.
Series [26] concerns VIP. Description: NOVASCREEN receptor selectivity assay: VIP. The format is binding. Conditions: 10^-5 M.
The subject of series [27] is Calcium. It is filed as binding. The following applies: 10^-5 M.
Series [28] deals with Calcium. Briefly: NOVASCREEN receptor selectivity assay: Calcium (Nifedipine). The format is binding. Conditions: 10^-5 M.
For series [29], the system named is Chloride. Description: NOVASCREEN receptor selectivity assay: Chloride. Conditions: 10^-5 M. It is filed as binding.
The subject of series [30] is Potassium. Description: NOVASCREEN receptor selectivity assay: Potassium. The format is binding. Conditions: 10^-5 M.
Series [31] deals with ANF (rat). Briefly: NOVASCREEN receptor selectivity assay: ANF (rat). The format is binding. The following applies: 10^-5 M.
The subject of series [32] is EGF. Description: NOVASCREEN receptor selectivity assay: EGF. The following applies: 10^-5 M. It is filed as binding.
The test system of series [33] is NGF. Description: NOVASCREEN receptor selectivity assay: NGF. The format is binding. The following applies: 10^-5 M.
The test system of series [34] is Adenylate Cyclase Forskolin. Description: NOVASCREEN receptor selectivity assay: Adenylate Cyclase, Forskolin. The format is binding. The following applies: 10^-5 M.
Series [35] concerns Protein Kinase C Phorbol Ester. Briefly: NOVASCREEN receptor selectivity assay: Protein Kinase C, Phorbol Ester. The format is binding. The following applies: 10^-5 M.
The subject of series [36] is Inositol Triphosphate. Briefly: NOVASCREEN receptor selectivity assay: Inositol Triphosphate. Conditions: 10^-5 M. The format is binding.
Series [37] has as its system adenosine, excitory or inhibitory amino acid, dopamine, serotonin, or a broad range of petidergic receptors, or to ion channel proteins, peptide factor or …. Briefly: NOVASCREEN receptor selectivity study (whole panel). The format is binding. The following applies: 10^-5 M.
Series [38] concerns H3 receptors in the cortex. Description: Blood-brain barrier penetration by ex vivo binding of [^3 H]-N^α -methylhistamine in rat cortex. As to the method: Blood-brain barrier penetration in rats was assessed by an ex vivo binding procedure. Young adult male Long-Evans rats were injected i.p. with saline or H3 antagonists in saline. At various times after injection animals were sacrificed, the cortex was removed, homogenized in 50 mM Na/K-phosphate buffer, pH 7.4, and the binding of 1 nM [^3 H]-N^α -methylhistamine was measured using 400 μg protein of the homogenate. Nonspecific binding was accounted for by the inclusion of excess thioperamide in some samples. Under these conditions, the binding was approximately 90% specific.

In series [39] the test system is Male albino CF-1 mice. Description: Behavioral effects in mice: sleep induced by (R)α-methylhistamine. The format is in vivo, mouse. On the procedure:
(§1) The overall strategy to show central nervous system antagonist activity was to challenge effects of the agonist (R)α-methylhistamine. Therefore, the first objective was to establish a dose response curve for behavioral effects of (R)α-methylhistamine. Male albino CF-1 mice weighing 20-30 g were used. Saline or (R)α-methylhistamine in saline was injected i.p. in a volume ≤0.4 ml. […] Animals were scored for the presence (1) or absence (0) of the behavior and the results were reported as the accumulated score for a 30 minute period (maximum score=9).
(§2) To assess the effects of antagonists, they were administered with the (R)α-methylhistamine in saline.

The subject of series [40] is Male Sprague-Dawley rats. Briefly: Food intake in 24-hour-fasted rats. The format is in vivo, rat. On the procedure: Male Sprague-Dawley rats (200-300 grams) were used in all experiments. Rats were fasted for 24 hours prior to all experiments. Water was provided ad lib. Rats were singly placed in a ventilated plastic circular rat metabolism chamber with a stainless steel wire mess grid flood equipped with food and H2 O attachments. A measured quantity of food (50 grams) and water (100 mls) was supplied through attachments to the metabolism chambers. Food and water intake was measured at the 2, 4 and 6 hour time periods.
Final volumes were 1.0 ml/kg. Subsequently, they were left undisturbed for the experimental period except when the food and H2 O attachments were briefly removed for measurement of food and water intake. At the completion of the experiment, animals were returned to their home cages. The results are found in Table III and FIGS. 7 and 8.

A short description of series [41]: Toxicity observed in testing to date. Conditions: all testing to date, even at high doses. It is filed as in vivo.
In series [42] the test system is H3 -receptor. Briefly: In vivo assays of H3-receptor antagonist effect (overall). On the procedure:
as §1, §2

For series [43], the target named is Inositol Triphosphate. The following applies: reference compound; cited from earlier work.
Series [44] addresses T1, histamine H3 receptor (Rattus norvegicus, UniProt Q9QYN8).
T1 construct: from tissue
Description: Inhibition of [^3 H]-N-alpha-methylhistamine binding to rat brain membranes. As to the method: A series of compounds were prepared and tested for their histamine H3 receptor antagonist activity. The antagonist activity of the compounds was detected by observing inhibition of (^3 H)-N-(alpha)methylhistamine activity on rat brain membranes.
The various compounds were tested for the ability to bind to the histamine H3 receptor. A binding assay in a rat brain membrane preparation, based on inhibition of binding of [^3 H]-N-alpha-methylhistamine using excess unlabeled alpha-methylhistamine to account for nonspecific binding, was developed.

Series [45] has as its target histamine H3 receptors. Conditions: in vitro; cited from earlier work.
Series [46] deals with brain in rats. The following applies: cited from earlier work.
The test system of series [47] is animal toxicity studies or in clinical usage. Conditions: cited from earlier work.
In series [48] the test system is peptic ulcer patients. The following applies: cited from earlier work.

Read-outs that look alike come from different tables or passages of the source.

T1 sequence (Q9QYN8 whole entry): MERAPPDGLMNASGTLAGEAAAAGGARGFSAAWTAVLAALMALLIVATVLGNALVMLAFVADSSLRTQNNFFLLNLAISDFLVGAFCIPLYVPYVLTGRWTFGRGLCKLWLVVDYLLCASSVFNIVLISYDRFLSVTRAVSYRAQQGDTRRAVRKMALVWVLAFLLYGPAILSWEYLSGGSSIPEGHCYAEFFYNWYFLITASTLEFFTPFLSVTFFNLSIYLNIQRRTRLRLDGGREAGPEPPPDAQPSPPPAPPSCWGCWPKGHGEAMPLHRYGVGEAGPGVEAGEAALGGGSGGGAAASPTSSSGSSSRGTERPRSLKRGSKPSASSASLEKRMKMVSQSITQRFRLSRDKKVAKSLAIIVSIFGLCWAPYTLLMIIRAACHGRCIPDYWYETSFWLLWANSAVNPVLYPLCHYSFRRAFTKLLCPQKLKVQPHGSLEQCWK

In the case of `O=C(CCCCC1CCCCC1)N1CCC(c2c[nH]cn2)CC1` [Compound 1, 4-(1-cyclohexylvaleroyl-4-piperidyl)-1H-imidazole], the “Initial Percent Inhibition (Average; N = 2)” value (“Initial Percent Inhibition” for short) in [1] is given as -3.0%; in [2], -1.8%; in series [3], 42.1%; in [4], -8.6%; in series [5] it was -4.5%; in series [6] it was 9.7%. Moreover, the “Initial Percent Inhibition” value in [7] is 1.8%; in series [8], 17.4%; in series [9], 0.6%; in series [10], 0.0%; in [11], 2.7%; in series [12], 6.4%. In addition, the “Initial Percent Inhibition” value in series [13] is recorded as 3.5%; in series [14] it was -3.6%; in [15], 10.5%; in series [16], 6.5%; in series [17] it was 10.1%; in [18], -5.5%. The “Initial Percent Inhibition” value is 18.6% in [19]; 6.9% in series [20]; 29.2% in series [21]; 20.0% in [22]; -8.7% in series [23]; -10.5% in series [24]. Also, the “Initial Percent Inhibition” value in [25] was 4.1%; in series [26], 17.1%; in series [27], 1.9%; in [28] it was 8.1%; in series [29], -3.4%; in series [30], 7.7%. For the same compound, the “Initial Percent Inhibition” value in [31] turned out to be 0.1%; in series [32], 18.1%; in series [33], 17.1%; in series [34], 2.1%; in series [35] it was 0.9%; in series [36], 9.2%. Also, in series [37], the “binding to panel receptors (in words)” value was “no significant binding”. Further, in [38] (50 and 70 mg/kg, one hour after injection), the “penetration of the blood-brain barrier (in words)” value is “penetrates the blood-brain barrier one hour after injections”. In addition, in series [38] (taking into account the difference in affinity), the “penetration of the blood-brain barrier compared with thioperamide (in words)” value is “penetrates the blood-brain barrier at least as well as thioperamide”. In series [39] (25 mg/kg (R)α-methylhistamine), the “soporific effect of (R)α-methylhistamine (in words)” value is “inhibited the soporific effect”. In addition, the “food intake 2 HR” value was 5.687 in [40] (3 mg/kg i.p.), 2.000 in [40] (10 mg/kg i.p.) and 1.167 in [40] (30 mg/kg i.p.). For the same compound, the “food intake 4 HR” value in [40] (3 mg/kg i.p.) was 7.333; in series [40] (10 mg/kg i.p.), 5.167; in series [40] (30 mg/kg i.p.), 2.333. Besides, in [40] (30 mg/kg i.p.), the “food intake 6 HR” value is 5.000. In addition, the “toxicity (in words)” value in series [41] is “no toxicity”. Further, in series [42], the “H3 -receptor antagonist effect (in words)” value is listed as “effective as an H3 -receptor antagonist”.
By Ki is commonly meant the dissociation constant of the complex between target and ligand, obtained from inhibition or displacement. For `O=P(O)(O)O[C@@H]1[C@H](O)[C@H](O)[C@@H](OP(=O)(O)O)[C@H](OP(=O)(O)O)[C@H]1O` [IP3], the Ki in series [43] is 12.5 nM.
Regarding `S=C(NC1CCCCC1)N1CCC(c2cnc[nH]2)CC1` [Thioperamide, reference compound], the IC50 in series [44] is 4 ± 0.6 nM; in [44] (read-out: affinity, repeated in text), 4 nM. Also, the “binding of [^3 H]-N^α -methylhistamine to cortex (in words)” value in [38] (2, 5, and 10 mg/kg i.p., 15 min after injection) is “decreased the binding of [^3 H]-N^α -methylhistamine”. Besides, in series [38] (thioperamide 2, 5, 10 mg/kg i.p., 15 min), the “penetration of the blood-brain barrier (in words)” value was “able to penetrate the blood-brain barrier”. Besides, the “soporific effect of (R)α-methylhistamine (in words)” value in series [39] (30 mg/kg of (R)α-methylhistamine) is recorded as “able to inhibit the soporific effect”. In series [39] (in the absence of the α-methylhistamine H3 receptor agonist), the “behavior with antagonist alone (in words)” value was “animals were very active, exhibiting normal behaviors”. Further, the Ki in series [45] was 4.3 nM. Further, the “dose required in vivo to inhibit histamine release from the brain (in words)” value in series [46] is “relatively high doses are required in vivo”.
In the case of `CN/C(=N/CCSCc1nc[nH]c1C)NC#N` [cimetidine], the “granulocytopenia or other side effects (in words)” value in series [47] was “did not cause granulocytopenia, or any other side effects”.
`C/N=C(\S)NCCSCc1[nH]cnc1C` [metiamide]: the “granulocytopenia (in words)” value in series [48] is “low incidence of granulocytopenia”.
